Values of other authors as cited in patent publication US8088760B2, “Benzoxazole carboxamide inhibitors of poly(ADP-ribose)polymerase (PARP)” (BioMarin Pharmaceutical Inc., priority 2008, dated 2012).

Columns and labels:
[1] = target: PARP-1 (Homo sapiens, UniProt P09874); conditions: PARP-1 inhibitor
[2] = test system: BRCA2-deficient cell line V-C8; conditions: BRCA2-deficient cell line V-C8 compared with the BRCA2 wild type control
[3] = test system: CAPAN-1 cells; conditions: CAPAN-1 cells maintained in DMEM supplemented with FCS (20% v/v), glutamine and antibiotics
[4] = test system: BRCA2-deficient tumors

Sequence of PARP-1 (P09874 whole entry, species assumed): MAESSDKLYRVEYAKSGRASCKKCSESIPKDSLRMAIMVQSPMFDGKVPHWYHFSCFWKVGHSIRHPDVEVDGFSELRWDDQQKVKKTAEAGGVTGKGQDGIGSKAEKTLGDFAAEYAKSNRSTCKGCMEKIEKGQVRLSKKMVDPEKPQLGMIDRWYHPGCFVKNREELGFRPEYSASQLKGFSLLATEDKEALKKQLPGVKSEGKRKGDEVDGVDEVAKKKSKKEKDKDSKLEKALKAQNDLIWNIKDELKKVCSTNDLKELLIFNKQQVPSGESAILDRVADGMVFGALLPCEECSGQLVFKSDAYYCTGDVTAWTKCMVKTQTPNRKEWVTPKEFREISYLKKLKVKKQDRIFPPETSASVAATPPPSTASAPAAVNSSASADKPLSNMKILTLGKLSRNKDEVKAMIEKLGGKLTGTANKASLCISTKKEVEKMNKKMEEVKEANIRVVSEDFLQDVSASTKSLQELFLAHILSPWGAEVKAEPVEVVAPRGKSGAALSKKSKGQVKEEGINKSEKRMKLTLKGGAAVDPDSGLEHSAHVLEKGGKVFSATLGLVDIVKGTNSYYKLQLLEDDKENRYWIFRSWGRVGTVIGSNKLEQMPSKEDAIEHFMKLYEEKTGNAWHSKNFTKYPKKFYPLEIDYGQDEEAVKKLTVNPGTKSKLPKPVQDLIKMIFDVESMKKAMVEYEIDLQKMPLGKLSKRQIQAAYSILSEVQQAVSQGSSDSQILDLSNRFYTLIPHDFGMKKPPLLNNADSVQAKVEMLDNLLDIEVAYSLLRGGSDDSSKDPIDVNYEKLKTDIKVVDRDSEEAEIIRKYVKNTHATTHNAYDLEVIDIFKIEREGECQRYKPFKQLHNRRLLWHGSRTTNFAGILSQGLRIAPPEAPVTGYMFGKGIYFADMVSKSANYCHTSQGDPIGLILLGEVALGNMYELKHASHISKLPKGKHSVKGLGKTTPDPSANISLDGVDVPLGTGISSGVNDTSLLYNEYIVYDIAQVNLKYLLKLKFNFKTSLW

CN(C)Cc1ccc(-c2nc3cccc4c3n2CCNC4=O)cc1 [AG14361]
Ki [1]: 0.005 µM
sensitivity in clonogenic survival assay [2]: exhibited sensitivity

O=C1CCC(=O)N1c1cc(Cc2n[nH]c(=O)c3ccccc23)ccc1F [KU0058684]
sensitivity in clonogenic survival assay [3]: showing sensitivity to PARP inhibition
in vivo efficacy in blocking tumor growth [4]: in vivo efficacy in blocking the growth of BRCA2-deficient tumors

Cc1nc2c(O)cccc2c(=O)[nH]1 [NU1025]
Ki [1]: 0.05 µM
sensitivity in clonogenic survival assay [2]: exhibited sensitivity
